{
  "source": "patent US11179412B2",
  "about": "“Methods of treating conditions involving elevated inflammatory response” (University of Pittsburgh—Of the Commonwealth System of …, priority 2017, dated 2021)",
  "note": "Counter-ions that a name gives are not always drawn.",
  "data": [
    {"system": "STING activation (IFNβ release) in iBMDMs", "assay": "IFNβ release ELISA after STING ligand (or LPS) stimulation, iBMDMs", "type": "cell-based, mouse", "details": "16 h, 10 µM", "method_in_brief": "(§1)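 IFNβ released into the medium was quantified by ELISA (mouse or human kit) after iBMDM stimulation with the canonical STING agonist 3′3′-cGAMP or with LPS.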", "units": {"fold increase in IFN-β release": "fold"}, "values": [
      {"smiles": "CCc1c(C(=O)C(N)=O)c2c(OCC(=O)O)cccc2n1Cc1ccccc1", "note": "[Varespladib (LY315920), Varespladib]", "fold increase in IFN-β release": 1.18}
    ]},
    {"system": "STING activation (IFNβ release) in iBMDMs", "assay": "IFNβ release ELISA after STING ligand (or LPS) stimulation, iBMDMs", "type": "cell-based, mouse", "details": "iBMDMs; 3′3′-cGAMP 10 μg/ml, 16 hours; compound 10 μM", "method_in_brief": "as §1", "units": {"fold increase in IFN-β release": "fold"}, "values": [
      {"smiles": "O=C(NCC1(c2nc(-c3ccccc3)cs2)CCOCC1)c1cccc(-c2noc(C(F)(F)F)n2)c1", "note": "[TMP269]", "fold increase in IFN-β release": 1.59},
      {"smiles": "NC(=O)Nc1sc(-c2ccc(F)cc2)cc1C(N)=O", "note": "[TPCA-1]", "fold increase in IFN-β release": 2.63},
      {"smiles": "Nc1cccc(-c2cc3c(Oc4cccc(O)c4)ncnc3[nH]2)c1", "note": "[TWS119]", "fold increase in IFN-β release": 0.35},
      {"smiles": "CN1CC(=O)N2[C@H](c3ccc4c(c3)OCO4)c3[nH]c4ccccc4c3C[C@@H]2C1=O", "note": "[Tadalafil]", "fold increase in IFN-β release": 2.66},
      {"smiles": "COc1cc2c(N3CCN(C(=O)Nc4ccc(OC(C)C)cc4)CC3)ncnc2cc1OCCCN1CCCCC1", "note": "[Tandutinib (MLN518), Tandutinib]", "fold increase in IFN-β release": 0.65},
      {"smiles": "COc1cc2c(cc1OC)CN(CCc1ccc(NC(=O)c3cc(OC)c(OC)cc3NC(=O)c3cnc4ccccc4c3)cc1)CC2", "note": "[Tariquidar]", "fold increase in IFN-β release": 0.77},
      {"smiles": "CCCc1nc2c(C)cc(-c3nc4ccccc4n3C)cc2n1Cc1ccc(-c2ccccc2C(=O)O)cc1", "note": "[Telmisartan]", "fold increase in IFN-β release": 2.26},
      {"smiles": "CO[C@H]1C[C@@H]2CC[C@@H](C)[C@@](O)(O2)C(=O)C(=O)N2CCCC[C@H]2C(=O)O[C@H]([C@H](C)C[C@@H]2CC[C@@H](OC(=O)C(C)(CO)CO)[C@H](OC)C2)CC(=O)[C@H](C)/C=C(\\C)[C@@H](O)[C@@H](OC)C(=O)[C@H](C)C[C@H](C)/C=C/C=C/C=C/1C", "note": "[Temsirolimus (CCI-779, NSC 683864), Temsirolimus]", "fold increase in IFN-β release": 0.73},
      {"smiles": "CC(C)OC(=O)OCOP(=O)(CO[C@H](C)Cn1cnc2c(N)ncnc21)OCOC(=O)OC(C)C", "note": "[Tenofovir Disoproxil Fumarate]", "fold increase in IFN-β release": 2.88},
      {"smiles": "CN(C)CCCCC(=O)Nc1ccc(NC(=S)NC(=O)c2ccc(C(C)(C)C)cc2)cc1", "note": "[Tenovin-6]", "fold increase in IFN-β release": 0.53},
      {"smiles": "O=C(NCc1ccccc1)c1csc(Nc2ccncn2)n1", "note": "[Thiazovivin]", "3′3′-cGAMP-induced IFNβ release": "promoted", "fold increase in IFN-β release": 8.11},
      {"smiles": "CCCSc1nc(N[C@@H]2C[C@H]2c2ccc(F)c(F)c2)c2nnn([C@@H]3C[C@H](OCCO)[C@@H](O)[C@H]3O)c2n1", "note": "[Ticagrelor]", "fold increase in IFN-β release": 1.70},
      {"smiles": "COc1ccc2cc(-c3nc(-c4ccc([S+](C)[O-])cc4)[nH]c3-c3ccncc3)ccc2c1", "note": "(centres unmarked) [Tie2 kinase inhibitor]", "fold increase in IFN-β release": 2.04},
      {"smiles": "O=c1oc2cc(O)ccc2s1", "note": "[Tioxolone]", "fold increase in IFN-β release": 1.88},
      {"smiles": "C[C@@H]1CCN(C(=O)CC#N)C[C@@H]1N(C)c1ncnc2[nH]ccc12", "note": "[Tofacitinib (CP-690550, Tasocitinib), Tofacitinib]", "fold increase in IFN-β release": 1.49},
      {"smiles": "c1ccc(CC2=NCCN2)cc1", "note": "[Tolazoline HCl]", "fold increase in IFN-β release": 1.46},
      {"smiles": "Cc1c(Cl)cccc1Nc1ccccc1C(=O)O", "note": "[Tolfenamic Acid]", "fold increase in IFN-β release": 2.19},
      {"smiles": "Cc1ccccc1C(=O)Nc1ccc(C(=O)N2CCCC(O)c3cc(Cl)ccc32)c(C)c1", "note": "(centres unmarked) [Tolvaptan]", "fold increase in IFN-β release": 1.20},
      {"smiles": "CCOC(=O)N1c2ccc(C(F)(F)F)cc2[C@@H](N(Cc2cc(C(F)(F)F)cc(C(F)(F)F)c2)C(=O)OC)C[C@H]1CC", "note": "[Torcetrapib]", "fold increase in IFN-β release": 3.84},
      {"smiles": "CN(C)CCOc1ccc(/C(=C(/CCCl)c2ccccc2)c2ccccc2)cc1", "note": "[Toremifene Citrate]", "fold increase in IFN-β release": 0.19},
      {"smiles": "Cn1c(=O)cc(N2CCC[C@@H](N)C2)n(Cc2cc(F)ccc2C#N)c1=O", "note": "[Trelagliptin]", "fold increase in IFN-β release": 1.80},
      {"smiles": "Nc1nc(N)c2nc(-c3ccccc3)c(N)nc2n1", "note": "[Triamterene]", "fold increase in IFN-β release": 0.99},
      {"smiles": "CC(/C=C/C(=O)NO)=C\\[C@@H](C)C(=O)c1ccc(N(C)C)cc1", "note": "[Trichostatin A (TSA), Trichostatin A]", "fold increase in IFN-β release": 0.39},
      {"smiles": "CCC(COC(=O)c1cc(OC)c(OC)c(OC)c1)(c1ccccc1)N(C)C", "note": "(centres unmarked) [Trimebutine]", "fold increase in IFN-β release": 0.30},
      {"smiles": "O=C(O[C@H]1C[C@H]2CC[C@@H](C1)[N+]21CCCC1)C(O)(c1ccccc1)c1ccccc1", "note": "[Trospium chloride]", "fold increase in IFN-β release": 0.76},
      {"smiles": "O=C(CCCCCCC(=O)Nc1ccc([C@H]2O[C@@H](CSc3nc(-c4ccccc4)c(-c4ccccc4)o3)C[C@@H](c3ccc(CO)cc3)O2)cc1)NO", "note": "[Tubacin]", "fold increase in IFN-β release": 1.05},
      {"smiles": "CC(C)(C)c1cc(/C=C(\\C#N)C(N)=S)cc(C(C)(C)C)c1O", "note": "[Tyrphostin AG 879]", "fold increase in IFN-β release": 1.99},
      {"smiles": "CCO.N#CC(=C(/N)Sc1ccccc1N)/C(C#N)=C(\\N)Sc1ccccc1N", "note": "[U0126-EtOH]", "fold increase in IFN-β release": 0.70},
      {"smiles": "O=C(c1cncc(Br)c1)N1CCC(N2CCCC2)CC1", "note": "[UNC669]", "fold increase in IFN-β release": 1.99},
      {"smiles": "NC(=O)c1cccc(-c2cccc(OC(=O)NC3CCCCC3)c2)c1", "note": "[URB597]", "fold increase in IFN-β release": 2.07},
      {"smiles": "CS(=O)(=O)c1ccc(-c2cnc(N)c(C(=O)Nc3ccccc3)n2)cc1", "note": "[VE-821]", "fold increase in IFN-β release": 0.45},
      {"smiles": "CNCc1ccc(-c2cc(-c3nc(-c4ccc(S(=O)(=O)C(C)C)cc4)cnc3N)on2)cc1", "note": "[VE-822]", "fold increase in IFN-β release": 0.86},
      {"smiles": "Cc1cc(Nc2cc(N3CCN(C)CC3)nc(Sc3ccc(NC(=O)C4CC4)cc3)n2)[nH]n1", "note": "[VX-680 (Tozasertib, MK-0457), Tozasertib]", "fold increase in IFN-β release": 0.91},
      {"smiles": "O=c1ncn2nc(Sc3ccc(F)cc3F)ccc2c1-c1c(Cl)cccc1Cl", "note": "[VX-745]", "fold increase in IFN-β release": 6.18},
      {"smiles": "CCO[C@@H]1OC(=O)C[C@@H]1NC(=O)[C@@H]1CCCN1C(=O)[C@@H](NC(=O)c1ccc(N)c(Cl)c1)C(C)(C)C", "note": "[VX-765]", "fold increase in IFN-β release": 1.67},
      {"smiles": "Cc1ccc(NC(=O)C2(c3ccc4c(c3)OC(F)(F)O4)CC2)nc1-c1cccc(C(=O)O)c1", "note": "[VX-809 (Lumacaftor), Lumacaftor]", "fold increase in IFN-β release": 1.07},
      {"smiles": "COc1cc2c(Nc3ccc(Br)cc3F)ncnc2cc1OCC1CCN(C)CC1", "note": "[Vandetanib (ZD6474), Vandetanib]", "fold increase in IFN-β release": 0.25},
      {"smiles": "C[C@]1(c2nc3c(C(N)=O)cccc3[nH]2)CCCN1", "note": "[Veliparib (ABT-888), Veliparib]", "fold increase in IFN-β release": 0.66},
      {"smiles": "CCCS(=O)(=O)Nc1ccc(F)c(C(=O)c2c[nH]c3ncc(-c4ccc(Cl)cc4)cc23)c1F", "note": "[Vemurafenib (PLX4032, RG7204), Vemurafenib]", "fold increase in IFN-β release": 0.59},
      {"smiles": "N#C[C@@H]1CCCN1C(=O)CNC12CC3CC(CC(O)(C3)C1)C2", "note": "[Vildagliptin (LAF-237), Vildagliptin]", "fold increase in IFN-β release": 1.04},
      {"smiles": "C[C@@H](c1ncncc1F)[C@](O)(Cn1cncn1)c1ccc(F)cc1F", "note": "[Voriconazole]", "fold increase in IFN-β release": 2.35},
      {"smiles": "c1ccc(NCc2ccc(CNc3ccccn3)cc2)nc1", "note": "[WZ811]", "fold increase in IFN-β release": 1.67}
    ]}
  ]
}
